Laboratory results taken from paper PMC4684755 (ACS chemical biology, 2015).

Experiments:
ORAS = ORAS (Neurospora crassa, UniProt Q7S6N4); test: type III PKS assay, LC-HRMS; format: biochemical; details: pH 8.0, room temperature, overnight
PKS18 = PKS18 (Mycobacterium tuberculosis, UniProt P9WPF1)
CsyA = molecular target: T1, CsyA (Aspergillus oryzae, UniProt Q53U85); test: type III PKS assay, LC-HRMS; format: biochemical; details: malonyl-CoA 2 mM, pH 8.0, room temperature, overnight
T1 sequence (Q53U85 1-402): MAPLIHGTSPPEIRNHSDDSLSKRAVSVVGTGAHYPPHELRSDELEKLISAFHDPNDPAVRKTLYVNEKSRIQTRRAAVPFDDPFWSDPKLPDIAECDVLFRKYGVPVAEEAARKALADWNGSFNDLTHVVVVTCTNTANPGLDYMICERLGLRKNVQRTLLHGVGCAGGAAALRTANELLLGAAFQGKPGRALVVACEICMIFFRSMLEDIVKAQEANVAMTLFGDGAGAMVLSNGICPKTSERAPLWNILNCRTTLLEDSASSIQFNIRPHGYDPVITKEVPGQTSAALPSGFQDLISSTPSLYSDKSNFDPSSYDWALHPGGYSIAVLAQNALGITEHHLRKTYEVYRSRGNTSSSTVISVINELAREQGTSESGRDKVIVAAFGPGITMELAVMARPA

Sequence of PKS18 (P9WPF1 whole entry): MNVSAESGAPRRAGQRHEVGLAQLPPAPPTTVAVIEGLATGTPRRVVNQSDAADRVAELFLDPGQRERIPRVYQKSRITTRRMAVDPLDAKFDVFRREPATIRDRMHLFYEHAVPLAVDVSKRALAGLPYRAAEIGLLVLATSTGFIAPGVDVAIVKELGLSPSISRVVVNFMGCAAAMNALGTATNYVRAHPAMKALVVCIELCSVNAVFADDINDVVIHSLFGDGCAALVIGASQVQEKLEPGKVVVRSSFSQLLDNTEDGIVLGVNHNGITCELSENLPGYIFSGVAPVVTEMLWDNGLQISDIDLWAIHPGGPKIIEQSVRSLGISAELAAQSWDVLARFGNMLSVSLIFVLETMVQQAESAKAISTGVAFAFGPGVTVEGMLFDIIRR

Structure (SMILES) | type III PKS assay, LC-HRMS (ORAS; lauryl-CoA 1 mM) | type III PKS assay, LC-HRMS (PKS18) | type III PKS assay, LC-HRMS (ORAS; malonyl-CoA 2 mM) | type III PKS assay, LC-HRMS (CsyA)
CC(C)(COP(=O)(O)OP(=O)(O)OC[C@H]1O[C@@H](n2cnc3c(N)ncnc32)[C@H](O)[C@@H]1OP(=O)(O)O)[C@@H](O)C(=O)NCCC(=O)NCCSC(=O)CC(=O)O [malonyl-CoA] | enzymatic reactions containing lauryl-CoA, malonyl-CoA and the type III PKSs as positive controls | enzymatic reactions containing lauryl-CoA, malonyl-CoA and the type III PKSs as positive controls | – | –
CCCCCCCCCCCC(=O)SCCNC(=O)CCNC(=O)[C@H](O)C(C)(C)COP(=O)(O)OP(=O)(O)OC[C@H]1O[C@@H](n2cnc3c(N)ncnc32)[C@H](O)[C@@H]1OP(=O)(O)O [lauryl-CoA] | – | enzymatic reactions containing lauryl-CoA, malonyl-CoA and the type III PKSs as positive controls | enzymatic reactions containing lauryl-CoA, malonyl-CoA and the type III PKSs as positive controls | enzymatic reactions containing lauryl-CoA, malonyl-CoA and the type III PKSs as positive controls
